Measurements taken from PMC10827914 (Cellular and Molecular Life Sciences: CMLS, 2024).
Counter-ions that a name gives are not always drawn.

Columns and labels:
[1] = system: membrane CD13 expressed by HUVEC; assay: Competitive binding of anti-CD13 mAb WM15 to HUVEC by flow cytometry; parameters: species or system human; settings: Fig. 4C and 4D
Procedure: HUVEC were seeded in 96-well U-bottom polystyrene microtiter plates at a density of 2 × 10^5 cells in 100 µL DPBS supplemented with 5% normal human serum (NHS) and mixed with a mixture of peptide G4 ranging from 0 to 10 µM and mAb WM15 (0 or 0.13 nM). The chromogranin A429-439 peptide fragment (CgA429-439) was used instead of G4 as a control. After 1 h of incubation at 4 °C, the cells were washed and resuspended in 100 µL of DPBS containing 5% NHS and 1 µg/mL of FITC-labeled goat anti-mouse IgG secondary antibody. Cells were subsequently incubated for 1 h at 4 °C, washed, and analyzed by flow cytometry. All flow cytometry data were collected on a CytoFLEX S flow cytometer (Beckman Coulter) and analyzed using FlowJo software 10 (BD BioScience).
Fig. 2 G4 recognizes soluble forms of CD13, with higher affinity and selectivity than bestatin, and the membrane forms expressed on the surface of HUVEC cells. A Inhibitory effects of G4 and bestatin on the enzymatic activities of different aminopeptidases (rCD13, APA, and APB). Various amounts of G4 or bestatin were incubated with rCD13 (0.2 µg/mL in 60 mM Tris–HCl pH 7.4), APA (0.2 µg/mL in 60 mM Tris–HCl pH 7.4, 50 mM calcium chloride, 200 mM sodium chloride) or APB (0.2 µg/mL in 60 mM Tris–HCl pH 7.4, 100 mM potassium chloride) and the corresponding substrates at 0.1 mM (L-alanine-7-amido-4-methylcoumarin for rCD13, L-glutamic acid γ-(7-amido-4-methylcoumarin) for APA, and L-arginine-7-amido-4-methylcoumarin for APB). The mixtures were incubated for 30 min at 37 °C, and the cleavage of each substrate was monitored by measuring the fluorescence of methylcoumarin (λex 341 nm; λem 441 nm) using an Infinite 200 PRO plate reader (Tecan). Three independent experiments were performed for each enzyme. […] Substrate cleavage by sCD13 dissociated from mAb WM15 was then monitored by measuring the absorbance at 405 nm in each well using a plate reader (Bio-Rad). […] After incubation for 60 min at 4 °C, the cells were washed and analyzed by flow cytometry. Data are expressed as the percentage of counts vs. fluorescence intensity units […]

HUVEC = HUVEC cell adhesion assay on coated microtiter plates; type: cell-based, human; settings: plates coated with 10 µg/mL, 4 × 10^5 HUVEC, 2.5 h, 37 °C, crystal violet, absorbance 540 nm
Procedure: The peptide VGCARRYCSGGSGGGSGK-biotin, with a biotin moiety linked to the ε-aminogroup of the Lys residue (ProteoGenix), was complexed with streptavidin (G4-streptavidin) or avidin (G4-avidin) by mixing it with a molar excess of streptavidin or avidin in DPBS (1:6 mol/mol), followed by incubation for 1 h at room temperature under mild stirring. To perform the cell adhesion assay, 96-well polyvinyl chloride microtiter plates were coated with G4-avidin or G4-streptavidin (10 µg/mL in DPBS, overnight, 4 °C). After blocking with 2% BSA in EBM-2 (45 min at room temperature), 4 × 10^5 HUVEC were seeded in Endothelial Cell Growth Basal Medium-2 (EBM-2, Cat. # 00190860, Lonza) and incubated for 2.5 h at 37 °C, 5% CO2. Unbound cells were removed by washing with EBM-2, and adherent cells were fixed with 3% paraformaldehyde and 2% sucrose in DPBS and stained with 0.5% crystal violet. The number of adherent cells was quantified by measuring the absorbance of the wells at 540 nm wavelength using a microplate reader.
Fig. 7 Adhesion of HUVEC cells to microtiter plates coated with G4-avidin or G4-streptavidin conjugates. Representative images of wells coated with 10 µg/mL of G4-avidin (A) or G4-streptavidin (B) complexes. Wells coated with avidin or streptavidin were used as negative controls. The absorbance of crystal violet-stained adherent cells is also shown. […]

[2] = target: T1, recombinant human CD13 (rCD13) (Homo sapiens, UniProt P15144); assay: rCD13 enzyme inhibition assay, L-alanine-p-nitroanilide substrate; type: biochemical; settings: Fig. 4B and 4E, one experiment in duplicate
T1 construct: consisting of the CD13 extracellular domain expressed in HEK-293 cells; His-tag; purchased Sino Biological 10051-H08H; host or cells: HEK-293 cells
T1 sequence (P15144 33-967 limits assumed): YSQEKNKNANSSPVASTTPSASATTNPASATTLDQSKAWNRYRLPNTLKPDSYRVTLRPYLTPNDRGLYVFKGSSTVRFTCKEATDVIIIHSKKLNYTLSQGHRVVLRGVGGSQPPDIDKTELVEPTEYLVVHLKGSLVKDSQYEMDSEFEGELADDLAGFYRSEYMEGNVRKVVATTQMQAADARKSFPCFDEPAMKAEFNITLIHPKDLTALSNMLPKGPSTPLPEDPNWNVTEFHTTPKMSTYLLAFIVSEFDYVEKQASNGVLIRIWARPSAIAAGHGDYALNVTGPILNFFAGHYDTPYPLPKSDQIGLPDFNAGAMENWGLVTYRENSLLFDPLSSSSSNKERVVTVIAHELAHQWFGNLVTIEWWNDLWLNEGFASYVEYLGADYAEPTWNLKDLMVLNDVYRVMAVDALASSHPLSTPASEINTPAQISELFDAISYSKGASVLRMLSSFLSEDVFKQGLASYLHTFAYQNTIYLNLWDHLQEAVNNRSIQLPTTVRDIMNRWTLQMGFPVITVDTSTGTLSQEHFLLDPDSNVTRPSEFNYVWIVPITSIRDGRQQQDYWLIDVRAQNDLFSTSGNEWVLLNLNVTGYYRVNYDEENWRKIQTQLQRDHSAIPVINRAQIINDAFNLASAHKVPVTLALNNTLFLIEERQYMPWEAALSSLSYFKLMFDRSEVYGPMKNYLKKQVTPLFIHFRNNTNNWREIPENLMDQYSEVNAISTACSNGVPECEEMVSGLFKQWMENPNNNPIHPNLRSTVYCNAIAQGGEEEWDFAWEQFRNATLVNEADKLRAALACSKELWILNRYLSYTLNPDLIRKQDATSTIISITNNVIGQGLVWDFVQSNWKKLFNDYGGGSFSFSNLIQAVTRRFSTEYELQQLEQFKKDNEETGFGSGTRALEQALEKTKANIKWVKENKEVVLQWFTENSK
Procedure: (§1) Recombinant CD13 (rCD13) enzyme activity and inhibition assays were performed as described previously using L-alanine-p-nitroanilide or L-alanine 7-amido-4-methylcoumarin as substrates in 60 mM Tris–HCl, pH 7.4, or 60 mM potassium phosphate buffer, pH 7.4. Mixtures containing peptides at various concentrations, rCD13 (0.2 µg/mL), and L-alanine-p-nitroanilide substrate (0.5 mM) in 60 mM potassium phosphate buffer, pH 7.4 (total volume, 0.1 ml) were prepared and left to react for 30 min at 37 °C. The products were then analyzed using a plate reader (iMark Microplate Absorbance Reader; Bio-Rad). Alternatively, the assay was performed using 0.1 mM L-alanine 7-amido-4-methylcoumarin in 60 mM Tris–HCl, pH 7.4, as a substrate. Fluorescence intensity of methylcoumarin was measured on an Infinite 200 PRO plate reader (Tecan) using the following settings: excitation wavelength: 341 nm; emission wavelength: 441 nm; excitation bandwidth: 9; emission bandwidth: 20 nm; gain: 109 manual; number of flashes: 25; integration time: 20 µs; lag time: 0 µs; settle time: 0 ms.
(§2) The IC50 of each inhibitor was calculated by non-linear regression analysis of inhibition data using GraphPad Prism Software (GraphPad Software, Version 9.00, San Diego, CA). Steady-state enzyme kinetic analyses were performed using various concentrations of L-alanine-p-nitroanilide (0–1.5 mM) and VGCARRYCS peptide (0–900 nM). The initial velocities (Vo) were calculated from the slopes of the first 5 min of reaction. The enzyme inhibitory constant (Ki) was calculated using the competitive enzyme inhibition model in GraphPad Prism Software.
A) VGCGRRYCSN and CSGIGSSGGC (control) peptides, at various concentrations, were mixed with rCD13 (0.2 µg/mL), L-alanine-p-nitroanilide substrate (0.5 mM), in 60 mM potassium phosphate buffer, pH 7.4. The mixtures were left to react for 30 min at 37° C; then the absorbance at 405 nm of each mixture was measured using an ELISA plate reader (Bio-Rad). The IC50 of each inhibitor was calculated by non-linear regression analysis of inhibition data using the GraphPad Prism Software (GraphPad Software, Version 9.00, San Diego, CA). The result of one experiment performed in duplicate is shown (mean ± SEM).

[3] = system: recombinant human aminopeptidase B (APB); assay: Enzyme activity assay of recombinant APB; type: biochemical; settings: APB 0.2 µg/mL, 60 mM Tris–HCl pH 7.4, 100 mM KCl, 0.1 mM L-arginine-7-amido-4-methylcoumarin, 30 min, 37 °C
Procedure: The effect of peptides on the enzymatic activity of APA and APB was evaluated using the method described previously with some modifications. Briefly, threefold serial dilution of peptides (ranging from 0 to 10 or 100 µM) were incubated with either APA (0.2 µg/mL in 60 mM Tris–HCl pH 7.4, 50 mM CaCl2, 200 mM NaCl) or APB (0.2 µg/mL in 60 mM Tris–HCl pH 7.4, 100 mM KCl) and relative substrates at 0.1 mM (L-glutamic acid γ-(7-amido-4-methylcoumarin) or L-arginine-7-amido-4-methylcoumarin, respectively) in 96-well bottom clear black polystyrene microtiter plates (100 µl/well). The mixture was incubated for 30 min at 37 °C in a humid box, and the cleavage of the substrate was correlated with aminopeptidase enzymatic activities by measuring the fluorescence of methylcoumarin at λex 341 nm and λem 441 nm with a plate reader (Infinite 200 PRO, Tecan). IC50 was calculated as reported above for CD13 activity.
Fig. 2 G4 recognizes soluble forms of CD13, with higher affinity and selectivity than bestatin, and the membrane forms expressed on the surface of HUVEC cells. […] The mixtures were incubated for 30 min at 37 °C, and the cleavage of each substrate was monitored by measuring the fluorescence of methylcoumarin (λex 341 nm; λem 441 nm) using an Infinite 200 PRO plate reader (Tecan). […] After incubation for 60 min at 4 °C, the cells were washed and analyzed by flow cytometry. […]

[4] = target: T1, recombinant human CD13 (rCD13); assay: rCD13 enzyme inhibition assay, L-alanine 7-amido-4-methylcoumarin substrate; type: biochemical; settings: rCD13 0.2 µg/mL, 60 mM Tris–HCl pH 7.4, 0.1 mM L-alanine-7-amido-4-methylcoumarin, 30 min, 37 °C
Procedure: as §1, §2
Fig. 2 G4 recognizes soluble forms of CD13, with higher affinity and selectivity than bestatin, and the membrane forms expressed on the surface of HUVEC cells. A Inhibitory effects of G4 and bestatin on the enzymatic activities of different aminopeptidases (rCD13, APA, and APB). Various amounts of G4 or bestatin were incubated with rCD13 (0.2 µg/mL in 60 mM Tris–HCl pH 7.4), APA (0.2 µg/mL in 60 mM Tris–HCl pH 7.4, 50 mM calcium chloride, 200 mM sodium chloride) or APB (0.2 µg/mL in 60 mM Tris–HCl pH 7.4, 100 mM potassium chloride) and the corresponding substrates at 0.1 mM (L-alanine-7-amido-4-methylcoumarin for rCD13, L-glutamic acid γ-(7-amido-4-methylcoumarin) for APA, and L-arginine-7-amido-4-methylcoumarin for APB). The mixtures were incubated for 30 min at 37 °C, and the cleavage of each substrate was monitored by measuring the fluorescence of methylcoumarin (λex 341 nm; λem 441 nm) using an Infinite 200 PRO plate reader (Tecan). Three independent experiments were performed for each enzyme. The results of one representative experiment for each enzyme are shown (mean ± SEM, duplicates). B Inhibitory effects of G4 and bestatin on soluble CD13 immunocaptured from human serum (sCD13) using microtiter plates coated with anti-CD13 mAb WM15. The microtiter plate was filled with a solution of mAb WM15 (5 μg/ml in DPBS) and incubated overnight at 4 °C. The plate was then washed with DPBS, blocked with 3% bovine serum albumin (BSA) in DPBS, and filled with human serum containing soluble CD13 (diluted 1:2 with DPBS containing 2% BSA). After washing with DPBS, mixtures of G4 or bestatin (0–100 µM in 60 mM Tris–HCl, pH 7.4) and L-alanine p-nitroanilide hydrochloride substrate (4.5 mM in 60 mM Tris–HCl, pH 7.4) were added and left to incubate at 37 °C for 2 h. Substrate cleavage by sCD13 dissociated from mAb WM15 was then monitored by measuring the absorbance at 405 nm in each well using a plate reader (Bio-Rad). The results of one experiment performed in triplicate are shown (mean ± SEM). C Effect of G4 on the binding of the anti-CD13 mAb WM15 to HUVEC. HUVEC were seeded at a density of 2 × 10^5 cells in 100 µL DPBS supplemented with 5% normal human serum (NHS) and incubated with a mixture of G4 peptide (0, 0.1, 1, and 10 µM) and mAb WM15 (0 or 0.13 nM) as indicated. […]

Inhibition of APB enzymatic activity (in words) [3] | Inhibition of rCD13 enzymatic activity (in words) [4] | Molecule | Competition of mAb WM15 binding to HUVEC (in words) [1] | Endothelial cell adhesion to coated plates (in words) (HUVEC) | Inhibition of rCD13 enzymatic activity (in words) [2]
– | – | VGCARRYCSGGSGGGSGK-biotin [G4-avidin, …-biotin complexed with avidin] | competed the binding of mAb WM15 to endothelial cells | promoted endothelial cell adhesion | could not inhibit the enzymatic activity of recombinant soluble CD13
inhibited both rCD13 and APB | inhibited both rCD13 and APB | CC(C)C[C@H](NC(=O)[C@@H](O)[C@H](N)Cc1ccccc1)C(=O)O [bestatin, Bestatin-hydrochloride] | – | – | –
